# Laboratory results: US20160084855A1, “Compositions and Methods for Modulation and Detection of Immune and Inflammatory Responses” (UNIVERSITY OF CONNECTICUT, priority 2013, published 2016)
# Where “and” joins values, the source holds several entries; their conditions need not be identical. Identical values can stand only once.
# How the values were obtained:
# [1] = system: spinal cord CD4+ and Foxp3+ T cells; assay: Flow cytometry of spinal cord mononuclear cells of mice with EAE; assay type: in vivo, mouse
# Source text: Spinal cord mononuclear cells were derived as previously described in Korn et al. “Myelin-specific regulatory T cells accumulate in the CNS but fail to control autoimmune inflammation” Nat. Med. 13:423-431 (2007) and stained for CD4 (FITC α-CD4 (GK1.5) BD Pharmingen) and Foxp3 (APC α-FoxP3 (FJK-16s; E-Bioscience), or stimulated in culture for 4 hrs with phorbol myristyl acetate and ionomycin prior to staining for Thy1.2 (PE-Cy7 anti-CD 90.2; E-Biosciences) and intracellular IFNγ (APC αIFNγ; BD Pharmingen) and IL-17 (Alexa Fluor 488 α-IL-17A; BD Pharmingen).
# To characterize mechanisms by which PE DHC may enhance autoimmune disease in vivo, the experimental studies tested whether the PE DHC-mediated enhancement of EAE was associated with alterations in T cell populations at a site of disease. WT mice were immunized with the usual EAE-inducing protocol and treated on Day 0 with EtOH or PE DHC (250 ng i.p.). Within 5 days after onset of EAE, mice were sacrificed and exsanguinated, their spinal cords were removed, and the mononuclear cells were derived from the spinal cords. These cells were analyzed directly for CD4 and Foxp3 expression by flow cytometry or were stimulated with PMA and ionomycin for 4 hours and then, gating on Thy1.2+ cells, analyzed for intra-cellular interferon gamma (IFNγ) and IL-17 by flow cytometry. […] However, the percentage of CD4+ T cells within the total mononuclear cell populations derived from the spinal cords of PE DHC-treated mice was, on average, greater than the percentage in EtOH-treated mice (as illustrated in Table 2). […] The mean percentage of spinal cord cells that were CD4+ was 41% in EtOH-treated mice and, on average, 6.7% of these were Foxp3+. In contrast, the mean percentage of spinal cord cells that were CD4+ T cells was 52% in PE DHC-treated mice and, on average, 4.3% of these were Foxp3+. It has been reported in Korn et al. “Myelin-specific regulatory T cells accumulate in the CNS but fail to control autoimmune inflammation” Nat. Med. 13:423-431 (2007) that the percentage of spinal cord CD4+ Foxp3+ T cells increased as the disease progressed. […] Based on this observation, it was unlikely that the decrease in the percentage of Foxp3+ in PE-DHC-treated mice was related to differences in disease duration.
# [2] = system: naïve CD4+CD25− T cells with T cell-depleted splenocytes (Tds); assay: In vitro generation of Th17 T cells; assay type: cell-based, mouse; settings: PE DHC 20 μg/ml sonicated liposomes; WT or TLR2−/− Tds; anti-CD3, GM-CSF, TGF-β; 5 days
# Method: CD4+CD25− T cells (Teff) were derived from WT mice using magnetic bead purification (Miltenyi Biotec, Auburn, Calif.). T cell-depleted splenocytes (Tds) were derived from WT or TLR2^−/− mice using magnetic bead purification followed by irradiation (2600R). Teff (0.25×10^6/well) and Tds (0.75×10^6/well) were cultured in 24-well plates with anti-CD3 antibody (1 μg/ml), GM-CSF (20 ng/ml) (Pierce Inc., Thermo Fisher Scientific, Rockford, Ill.) and recombinant TGF-β (2 ng/ml) (R&D). In addition, LPS (2 μg/ml), MMP (5 μg/ml) or P. gingivalis PE DHC (20 μg/ml of sonicated liposome preparations) were added to wells to stimulate the secretion of IL-6. Cultures were harvested after 5 days, stimulated in culture for 4 hrs with phorbol myristyl acetate and ionomycin and stained for Thy1.2, intracellular IFNγ, and IL-17 and analyzed by FACS after gating on Thy 1.2+ cells.
# PE DHC's ability to induce IL-6 secretion was characterized by testing its ability to induce Th17 T cell generation from cultures of naïve CD4+ CD25-T cells activated in the presence of APCs (T cell depleted splenocytes; Tds) and TGF-β. See Bettelli et al. “T(H)-17 cells in the circle of immunity and autoimmunity” Nat. Immunol. 2007, 8:345-350.
# bone marrow DCs (BMDCs) = assay: Stimulation of bone marrow dendritic cells, IL-6 ELISA and surface activation markers; assay type: cell-based, mouse; settings: for IL-6 secretion: plate-bound LPS 1 μg, MMP 10 μg, PE DHC 2.5 μg, 18 hrs
# Method: Bone marrow cells from C57BL/6 and TLR2^−/− mice were cultured at 2×10^5 cells/ml in RPMI containing 10% FCS, 2-ME, and 20 ng/ml recombinant murine GM-CSF for 9 days. Bone marrow DCs (BMDCs) were harvested at Day 9 and were greater than 80% CD11c+. LPS (1 μg), MMP (10 μg) (a bacterial lipoprotein and known TLR-2 ligand (Bachem H-9460), PE DHC (2.5 μg) or 70% EtOH, all in 20 ul volumes, were allowed to dry in the wells of a 24-well plate overnight prior to the addition of BMDCs. BMDCs were cultured in the ligand-bound 24-well plates at 1×10^6 cells/ml in RPMI containing GM-CSF. After 18 hrs, culture supernatants were harvested and tested for IL-6 via ELISA.
# The effects of PE DHC on antigen presenting cell (APC) activation in vitro were examined Dendritic cells (BMDCs) (>85% CD11c+) were derived from the bone marrow of WT or TLR2^−/− mice and cultured either alone or with EtOH, LPS, MMP (a TLR2 ligand), or PE DHC. After 18 hrs supernatants were assayed for IL-6. […] BMDCs were also assayed for expression of the surface activation markers B7.2 and MHC class II.
substance,measurement,setting,value
phosphoethanolamine dihydroceramide [PE DHC],"Total number of mononuclear cells obtained from the spinal cords, versus EtOH","[1]; WT mice, PE DHC 250 ng i.p.",no significant difference
same,"Percentages of spinal cord CD4+ T cells staining for intra-cellular IFNγ or IL-17, versus EtOH","[1]; WT mice, PE DHC 250 ng i.p., PMA and ionomycin 4 hours",not significantly different
same,DISEASE GRADE,"[1]; individual WT mice at sacrifice, PE DHC 250 ng i.p. Day 0",3.3 (2×) and 3.5 and 2.9 (2×) and 3.0
same,% CD4+ in spinal cord,"[1]; individual WT mice, PE DHC 250 ng i.p. Day 0, 1-5 days after onset of EAE, of total mononuclear cells",72.00% and 38.00% and 68.86% and 49.54% and 40.83% and 46.50%
same,% Foxp3+ in spinal cord,"[1]; individual WT mice, PE DHC 250 ng i.p. Day 0, after gating on CD4+ T cells",4.53% and 7.52% and 2.75% and 3.45% and 3.21% and 4.27%
same,Generation of Th17 T cells,[2],resulted in the generation of Th17 T cells in cultures containing WT but not TLR2^−/− Tds
same,IL-6 secretion,bone marrow DCs (BMDCs); TLR2−/− BMDCs,did not result in IL-6 secretion
same,IL-6 secretion,bone marrow DCs (BMDCs); WT BMDCs,levels of IL-6 secretion that were almost equivalent to that seen with LPS
same,Expression of surface activation markers B7.2 and MHC class II,bone marrow DCs (BMDCs); WT and TLR2−/− BMDCs,increased MHC II and B7.2 expression on WT but not TLR2^−/− BMDCs
